Key:
[1] = test system: Mycoplasma Pneumoniae (MP); assay: Inflammatory factors in lung tissue of MP-infected mice (ELISA); type: in vivo, BALB/C mice; conditions: 4 days
Protocol: […] Each group consisted of 10 mice, with an equal number of males and females. Except for the normal control group, all mice were lightly anesthetized with isoflurane and infected intranasally with Mycoplasma Pneumoniae (50 μl per mouse) for three consecutive days. On the day of infection, each treatment group received nebulized medication once daily for four consecutive days, while the normal control group and model control group received nebulized saline under the same conditions. On the fifth day, the mice were weighed, sacrificed by cervical dislocation, and their lung tissues were dissected, weighed, and used to calculate the lung index and lung index inhibition rate; measure the levels of inflammatory factors in the lung tissue; measure the serum CRP levels; and conduct pathological examinations of the lung tissue. The results were statistically analyzed using the t-test for intergroup comparisons.
(1) Sample Collection and Storage: Tissue Homogenate Samples: After weighing, lung tissues were collected from 8 mice in each group and stored at −80° C. The MP Fastprep-24 5G Rapid Sample Preparation System was used to homogenize the tissues, followed by centrifugation at […] and 3000 r/min for 10 minutes using a low-temperature high-speed centrifuge. The supernatant was then aspirated, aliquoted, and stored at −80° C. for future use, avoiding repeated freeze-thaw cycles.
(2) The microplate, which had been equilibrated to room temperature, was removed from the sealed bag. Different concentrations of standards were added to the corresponding wells, with 50 μL per well. For experimental samples, 10 μL of sample was added to each well, followed by 40 μL of diluent. Except for the blank wells, 100 μL of HRP (Horseradish Peroxidase) was added to each well. The reaction wells were sealed with sealing tape and incubated at 37° C. for 1 hour. The plate was then washed with wash buffer four times. After the final wash, the plate was inverted and all residual liquid was patted dry on absorbent paper. 50 μL of both Substrate A and Substrate B were added to each well. The reaction wells were then sealed with sealing tape and incubated at 37° C. for 15 minutes. After that, 50 μL of stop solution was added to each well, and the absorbance at 450 nm was measured using a microplate reader within 15 minutes. The results were then calculated.

[2] = test system: Lipopolysaccharide (LPS)-induced pneumonia model in mice; assay: LPS-induced pneumonia model in mice, intravenous injection: lung index; type: in vivo, ICR mice; conditions: for Lung Index: 6 h after LPS
Protocol: (§1) Sixty healthy mice, weighing 18˜20 g, half male and half female, were selected and randomly grouped after stratification by weight; they were divided into a normal control group, a model control group, three Genipin-1-β-D-gentiobioside dose groups (150 mg/kg/d, 75 mg/kg/d, 37.5 mg/kg/d), and a positive control drug Sivelestat Sodium 50 mg/kg/d group, with 10 mice in each group, half male and half female. After grouping, each treatment group was administered intravenously at 20 ml/kg once daily for 2 consecutive days, while the normal control group and model control group were injected with physiological saline. One hour after the second dose, except for the normal control group, the other groups were lightly anesthetized with isoflurane, and a 20 mg/ml LPS physiological saline solution was administered intranasally to the mice at 0.05 ml/mouse to induce the pneumonia model. Six hours after infection, the animals were sacrificed, dissected, and their lungs were removed and weighed to calculate the lung index (lung index=lung weight/body weight×100%).

[3] = test system: Lipopolysaccharide (LPS)-induced pneumonia model in mice; assay: Inflammatory factors in lung tissue of LPS-induced pneumonia mice (ELISA); type: in vivo, ICR mice; conditions: i.v.
Protocol: as §1
(1) Sample Collection and Storage: Tissue homogenate samples: The lung tissues of mice were collected and weighed, including those from mice numbered 1, 2, 3, 6, 7, and 8 in each group. The tissues were stored at […] An ultrasonic cell disruptor was used to homogenize the tissues, followed by centrifugation at […] and 1000 r/min for 10 minutes using a low-temperature high-speed centrifuge. The supernatant was then collected, aliquoted, and stored at −80° C. for future use, avoiding repeated freeze-thaw cycles.
(2) The microwell plate, which had been equilibrated to room temperature, was removed from the sealed bag. Different concentrations of standards, experimental samples, or quality control samples were added to the corresponding wells, with 100 μL per well. The reaction wells were sealed with sealing tape and incubated at room temperature for 2 hours. The plate was then washed with wash buffer, repeating the operation four times. After the final wash, the plate was inverted and all residual liquid was patted dry on absorbent paper. Next, 100 μL of enzyme-labeled detection antibody was added to each microwell. The reaction wells were sealed again with sealing tape and incubated at room temperature for another 2 hours. The washing step was repeated as described above. Then, 100 μL of substrate solution was added to each microwell and incubated at room temperature for 30 minutes, protected from light. Within 30 minutes after adding 100 μL of stop solution to each microwell, the absorbance at 450 nm was measured using a microplate reader. The results were then calculated.

[4] = 37.5 mg/kg i.v. once daily 2 days
[5] = 75 mg/kg i.v. once daily 2 days
[6] = 150 mg/kg i.v. once daily 2 days

**Q.** How did the “Inflammatory Factor Levels in Lung Tissue IL-1β” value ([1]; 37.5 mg/ml inhalation) turn out when `COC(=O)C1=CO[C@@H](O[C@@H]2O[C@H](CO[C@@H]3O[C@H](CO)[C@@H](O)[C@H](O)[C@H]3O)[C@@H](O)[C@H](O)[C@H]2O)[C@@H]2C(CO)=CC[C@H]12` [Genipin-1-β-D-gentiobioside] was run?
**A.** Its value is 147.59 ± 41.87 pg/mL.

**Q.** What about the “Inflammatory Factor Levels in Lung Tissue IL-6” value ([1]; 37.5 mg/ml inhalation) of the same compound?
**A.** Its value is 150.92 ± 7.65 pg/mL.

**Q.** And the “Inflammatory Factor Levels in Lung Tissue TNF-α” value ([1]; 37.5 mg/ml inhalation)?
**A.** The value was 248.53 ± 93.97 pg/mL.

**Q.** What about the “Inflammatory Factor Levels in Lung Tissue IL-1β” value ([1]; 75 mg/ml inhalation) of the same compound?
**A.** Its value is 148.31 ± 10.97 pg/mL.

**Q.** And the “Inflammatory Factor Levels in Lung Tissue IL-6” value ([1]; 75 mg/ml inhalation)?
**A.** The value was 163.92 ± 8.54 pg/mL.

**Q.** What about the “Inflammatory Factor Levels in Lung Tissue TNF-α” value ([1]; 75 mg/ml inhalation) of the same compound?
**A.** The value was 312.79 ± 81.52 pg/mL.

**Q.** What about the “Inhibition Rate (lung index)” value [2, 4] of the same compound?
**A.** Its value is 48.85.

**Q.** And the “Lung Index” value [2, 4]?
**A.** The value was 0.91 ± 0.09 g/100 g body weight.

**Q.** What about the “Inhibition Rate (lung index)” value [2, 5] of the same compound?
**A.** The value was 94.65.

**Q.** And the “Lung Index” value [2, 5]?
**A.** Its value is 0.85 ± 0.14 g/100 g body weight.

**Q.** And the “Inhibition Rate (lung index)” value [2, 6]?
**A.** The value was 77.10.

**Q.** And the “Lung Index” value [2, 6]?
**A.** The value was 0.87 ± 0.01 g/100 g body weight.

**Q.** And the “Inflammatory Factor Levels in Lung Tissue IL-6” value ([3]; dosage 37.5 (mg/ml))?
**A.** The value was 16.53 ± 1.91 pg/mL.

**Q.** And the “Inflammatory Factor Levels in Lung Tissue IL-10” value ([3]; dosage 37.5 (mg/ml))?
**A.** Its value is 39.00 ± 8.37 pg/mL.

**Q.** And the “Inflammatory Factor Levels in Lung Tissue TNF-α” value ([3]; dosage 37.5 (mg/ml))?
**A.** Its value is 106.13 ± 15.70 pg/mL.

**Q.** What about the “Inflammatory Factor Levels in Lung Tissue IL-6” value ([3]; dosage 75 (mg/ml)) of the same compound?
**A.** Its value is 17.72 ± 2.15 pg/mL.

**Q.** What about the “Inflammatory Factor Levels in Lung Tissue IL-10” value ([3]; dosage 75 (mg/ml)) of the same compound?
**A.** Its value is 35.75 ± 6.74 pg/mL.

**Q.** And the “Inflammatory Factor Levels in Lung Tissue TNF-α” value ([3]; dosage 75 (mg/ml))?
**A.** Its value is 119.71 ± 19.76 pg/mL.

**Q.** And the “Inflammatory Factor Levels in Lung Tissue IL-6” value ([3]; dosage 150 (mg/ml))?
**A.** Its value is 16.63 ± 2.19 pg/mL.

**Q.** And the “Inflammatory Factor Levels in Lung Tissue IL-10” value ([3]; dosage 150 (mg/ml))?
**A.** Its value is 36.00 ± 5.14 pg/mL.

**Q.** What about the “Inflammatory Factor Levels in Lung Tissue TNF-α” value ([3]; dosage 150 (mg/ml)) of the same compound?
**A.** The value was 100.25 ± 12.41 pg/mL.

— US20250195553A1, “Use of Genipin-1-B-D-Gentiobioside in Preparation of Drug” (Guizhou Bailing Group Pharmaceutical Co., Ltd., priority 2023, published 2025)
